Active and inactive are the calls of the source.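 How the source made its calls: active means compounds giving half or more protection of infected cells from virus-caused growth loss, again on retest; inactive means the rest.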 Where a SMILES comes first, the peptide text is derived from it. The star is where a group is joined. Boc = CC(C)(C)OC(=O)*; OSu = O=C1CCC(=O)N1O* Some results are limits rather than exact numbers.

The test system of this experiment is CEM cells HIV-1 protection, formazan growth assay. Description: NCI AIDS Antiviral Assay. The following applies: for IC50: measured here: growth of uninfected CEM cells. The gist of the method:
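Protection of CEM cells against HIV-1 was scored from cell growth (soluble formazan) across five concentrations, with parallel uninfected cells. Lack of protection may reflect toxicity.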

With `C=C1C(OC(=O)C(O)C(c2ccccc2)N(C)C)C[C@H](OC(C)=O)[C@]2(C)C1C(OC(C)=O)[C@@H]1CC(OC(C)=O)C(C)=C([C@@H](OC(C)=O)C2OC(C)=O)C1(C)C` (stereo not given in full), the outcome was inactive.

Broadly, the EC50 is the concentration that produces a half-maximal response. Broadly, the IC50 is the midpoint of a concentration-inhibition curve. Higher therefore signals lower potency. Turning to `COC(=O)c1ccccc1/C=C1\Cc2c(ccc3c2CCC3)C1=O`, the EC50 was above 151 µM and the IC50 is above 151 µM.

Turning to `CCCCC(CC)CCC(CCC(CC)CCCC)S(=O)(=O)O` (stereo not given), the EC50 was above 200 µM and the concentration for half-maximal inhibition (IC50) is above 200 µM.

As to `CC1COC(C)(C)P(c2ccccc2)C1` (stereo not given), the EC50 is above 1120 µM and the IC50 was above 1120 µM.

As to `CO/C=C(\Br)c1ccc2c(c1)OCO2`, the result was inactive.

In the case of `Nc1nc(N)c(N=O)c(N)n1`, the EC50 was above 200 µM and the IC50 was 170 µM.

In the case of `COc1cnn(-c2ccccc2)c(=O)c1SCc1ccc(Cl)cc1`, the EC50 was above 52.5 µM and the IC50 stood at 30.9 µM.

For the compound `CCOc1cnn(-c2ccccc2)c(=O)c1SCc1ccc(Cl)c(Cl)c1`, the EC50 was above 33.1 µM and the IC50 came to 18.6 µM.

Consider `CO/N=C\c1c2c(O)c3c(O)c(C)c4c(c3c1O)C(=O)C(C)(O/C=C\C(OC)C(C)C(OC(C)=O)C(C)C(O)C(C)C(O)C(C)/C=C\C=C(\C)C(=O)N2)O4` (stereo not given), for which the EC50 is above 151 µM and the IC50 worked out at 15.8 µM.

Regarding `N#CCCN(CCC#N)c1ccc(/C=C(/NC(=O)c2cc([N+](=O)[O-])ccc2Cl)C(=O)NN)cc1`, the EC50 is above 10.7 µM and the IC50 is above 10.7 µM.

Turning to `CC(C)(C)OC(=O)NC(Cc1ccc(O)cc1)C(=O)NC(CCCCN)C(=O)NC(Cc1ccc(O)cc1)C(=O)NC(CCCCN)C(=O)ON1C(=O)CCC1=O` (stereo not given) (Boc-YKYK-OSu; configuration not given here), the EC50 was above 100 µM and the IC50 was above 100 µM.

For the compound `CC1(C)CNC[C@](C)(OCc2ccccc2)C(=O)[N-]C(C)(C)CNC[C@@](C)(OCc2ccccc2)C(=O)[N-]1.[Ni+2]`, the EC50 was above 200 µM and the IC50 amounted to 151 µM.

As for `COc1ccc(OCC(=O)O)c(C(=O)CCC(=O)O)c1`, the result was inactive.

Take `CC(C)S(=O)(=O)O`: the EC50 was above 200 µM and the IC50 was above 200 µM.

Consider `CCOc1ccc2nc3nc(=O)[nH]c(C)c3c(NCCCN(CC)CC)c2c1`, for which the EC50 is above 200 µM and the IC50 was above 200 µM.

On to `CCCC(=O)OC1C(C2COC(C)(C)O2)OC2OC(C)(C)OC21` (stereo not given), for which the outcome was inactive.

As for `CCOC(=O)Cc1csc2[n+]1C(=O)/C(=C/c1ccc(OC)c(OC)c1)S2`, the EC50 is above 200 µM and the IC50 was 20 µM.

Consider `O=C(O)CCCCCCCc1cc(O)ccc1[N+](=O)[O-]`, for which the EC50 was above 200 µM and the IC50 was above 200 µM.

Take `COc1cc(OC)c(-n2[nH]c(=O)n(C)c2=O)c(OC)c1`: the EC50 was above 200 µM and the half-maximal inhibitory concentration (IC50) is above 200 µM.

`Nc1ncnc2snnc12`: the EC50 was above 200 µM and the half-inhibitory concentration (IC50) was above 200 µM.

As for `Cc1nc2ccc(N=NN(C)C)cc2[nH]1`, the EC50 is above 200 µM and the IC50 was above 200 µM.

Take `Cc1ccccc1NC(=S)Nc1ccccn1`: the EC50 is above 200 µM and the IC50 was found to be 95.5 µM.

`CC(C)(C)OC(=O)N1CCC(NC(=O)NC2CCN(C(=O)OC(C)(C)C)CC2)CC1`: the EC50 was above 200 µM and the IC50 was above 200 µM.

For `Cc1ccc2nc(C(=O)O)c(=O)[nH]c2c1`, the result was inactive.

For `CC1OC(=O)N2CCC=CC12` (stereo not given), the result was inactive.

Regarding `O=Nc1c(-c2ccccc2)nnc(-c2ccccc2)c1N=O`, the EC50 is above 9.33 µM and the IC50 is above 9.33 µM.

In the case of `Cc1nc2c(nc1C)C(=O)C(Br)=C(N)C2=O`, the result was inactive.

On to `CSc1nc(N)c2c(n1)NCNS2(=O)=O`, for which the EC50 is above 1000 µM and the half-maximal inhibitory concentration (IC50) was above 1000 µM.

As for `CCCCCCCCCCO/N=C\c1c2c(O)c3c(O)c(C)c4c(c3c1O)C(=O)C(C)(O/C=C\C(OC)C(C)C(OC(C)=O)C(C)C(O)C(C)C(O)C(C)/C=C\C=C(\C)C(=O)N2)O4` (stereo not given), the EC50 is above 200 µM and the IC50 came to 3.02 µM.

With `CC1(C)C2CC(=O)C1(C)C(OCc1ccccc1)C2Br` (stereo not given), the EC50 is above 200 µM and the IC50 was above 100 µM.

In the case of `Cc1ccc(S(=O)(=O)Oc2ccc3oc4c(CO)ccc(NCCN(C)C)c4c(=O)c3c2)cc1`, the EC50 is above 38.9 µM and the IC50 was 6.92 µM.

Turning to `FC(F)(F)c1ccc2c3c(c4c(c2n1)OCN(Cc1ccc(Cl)cc1Cl)C4)CN(Cc1ccc(Cl)cc1Cl)CO3`, the EC50 is 0.282 µM and the IC50 amounted to 4.37 µM.

As for `O=C(CC1OC(O)C(Cl)=C1Cl)c1cccnc1` (stereo not given), the EC50 was 24.5 µM and the IC50 was 501 µM.

As for `CC(=O)OC1SC(OC(C)=O)C2OC(=O)OC12` (stereo not given), the EC50 is above 871 µM and the IC50 worked out at 155 µM.

For `COc1ccc(/C=C/c2cc(OC)c(OC)c(OC)c2)cc1O[Si](C)(C)C(C)(C)C`, the EC50 was above 8.71 µM and the IC50 turned out to be 0.479 µM.

On to `NCCC1(N)CCNCC1`, for which the result was inactive.

As for `CC1=C[C@H]2C[C@@]3(C)O[C@@H]([C@]4(C)CC[C@H]([C@@H](C)C(=O)O)OO4)CC3C(C)(C)[C@H]2CC1` (stereo not given in full), the result was inactive.

Take `COc1ccc2nc3cc([N+](=O)[O-])ccc3c(NCCCN(CCO)CCO)c2c1`: the EC50 was above 200 µM and the IC50 amounted to 2.51 µM.

On to `CC(C)(C)c1cc(COc2c3sc(=S)sc3c(OCc3cc(C(C)(C)C)cc(C(C)(C)C)c3)c3sc(=S)sc23)cc(C(C)(C)C)c1`, for which the result was inactive.

With `CCOC(=O)c1oc2c(OC)cc(Cl)c3c2c1CCC3`, the result was inactive.

Turning to `CC(=O)OCC1OC(n2c(-c3cccs3)c3c(c(C#N)c2=S)-c2ccccc2CC3)C(OC(C)=O)C(OC(C)=O)C1OC(C)=O` (stereo not given), the result was inactive.

With `Cc1c(C(=O)c2ccccc2)n(COCCCO[Si](C)(C)C(C)(C)C)c(=O)[nH]c1=O`, the EC50 is above 200 µM and the half-maximal inhibitory concentration (IC50) turned out to be 11.7 µM.

As to `CCOC(=O)NP(=O)(N1CC1(C)C)N1CC1(C)C` (stereo not given), the EC50 was 123 µM and the IC50 was above 200 µM.

As for `C[N+](C)(C)CC(=O)N/N=C(/Cc1nc2ccc(Cl)cc2[nH]c1=O)C1=NS(=O)(=O)c2cc(S(N)(=O)=O)c(Cl)cc2N1`, the EC50 is above 269 µM and the IC50 is above 269 µM.

`CC(C)(O)/C=C/C(=O)[C@](C)(O)[C@H]1[C@H](O)C[C@@]2(C)[C@@H]3CC=C4[C@@H](C=C(O)C(=O)C4(C)C)[C@]3(C)C(=O)C[C@]12C`: the EC50 was above 0.2 µM and the IC50 came to 0.0324 µM.

On to `O=C1Cc2c([nH]c3cc(Br)ccc23)-c2ccccc2N1`, for which the EC50 was above 200 µM and the IC50 was determined as 8.91 µM.

Regarding `COc1cc(Oc2c(O)c(C)c(OC)c(C(C)=O)c2O)c(C(C)=O)c(O)c1C`, the EC50 was above 93.3 µM and the IC50 was above 93.3 µM.

`O=c1c2cc([N+](=O)[O-])ccc2[nH]n1Cc1ccccn1`: the EC50 is above 200 µM and the half-maximal inhibitory concentration (IC50) was above 200 µM.

With `CCCCCC(=O)Nc1nc[nH]c1C(N)=O`, the EC50 was above 200 µM and the 50% inhibitory concentration (IC50) was above 200 µM.

On to `CCOC(=O)c1[nH]n(-c2ccccc2)c(=O)c1/C=N/C(=S)Nc1c(CC)cccc1CC`, for which the EC50 is above 100 µM and the IC50 stood at 24.5 µM.

Take `CCCCNC1CCC2(SCCS2)c2[nH]c3ccccc3c21` (stereo not given): the EC50 was above 200 µM and the IC50 was determined as 1.26 µM.

For the origin of these results see PubChem BioAssay AID179 (DTP/NCI, 2004).
